Earlier results as cited in publication PMC8698672, “Selective Anticancer and Antimicrobial Metallodrugs Based on Gold(III) Dithiocarbamate Complexes” (Biomedicines, 2021).

Test system: Caco-2/TC7 tumor cells
Details: reference drugs, Caco-2 tumor cells; ref [27]; cited from earlier work

Question: For `CC(=O)OC[C@H]1O[C@@H]([S-])[C@H](OC(C)=O)[C@@H](OC(C)=O)[C@@H]1OC(C)=O.CCP(CC)CC.[Au+]` [auranofin, 2,3,4,6-tetra-o-acetyl-1-thio-b-D-glucopyranosato-(S)-triethylphosphine gold(I)], which IC50 is on record?
Answer: 2100 ± 400 nM
